6 compounds from patent US20250283873A1, “NERVOUS SYSTEM CELL-CONTAINING SPHEROID, METHOD FOR PRODUCING NERVOUS SYSTEM CELL-CONTAINING SPHEROID, AND METHOD FOR EVALUATING TEST SUBSTANCE” (Ricoh Company, Ltd., priority 2024, published 2025) can be followed below.

The subject of test [1] is 3D spheroid-cultured nerve cells (human iPSC-derived nerve cells and human-derived primary cultured astrocytes). As to the kind of experiment: Calcium assay in 3D spheroid-cultured nerve cells (number of calcium spikes). The test is classed as cell-based. The following applies: for relative value (log 2) of a change in number of the calcium spikes (DMSO = 0) / relative value of the number of the calcium spikes (DMSO set to 100%): cultured 5 weeks; for relative value (log 2) of a change in number of the calcium spikes (DMSO = 0): Experimental Examples 4-9, FIG. 4-9.
Excerpt: Human iPSC-derived nerve cells (Excitatory Neurons, Elixirgen Scientific, Inc.) and human-derived primary cultured astrocytes (ScienCell Research Laboratories, Inc.) were mixed so that the number of cells per well was 8,000 for the nerve cells and 8,000 for the astrocytes, and seeded on a plate for producing a spheroid. As the culture medium, Neurobasal Plus (Thermo Fisher Scientific, Inc.) to which B-27 Plus Supplement (Thermo Fisher Scientific, Inc.), Glutamax (Thermo Fisher Scientific, Inc.), 200 μM ascorbic acid (FUJIFILM Wako Pure Chemical Corporation), and a 10% Neuron Culture medium (FUJIFILM Wako Pure Chemical Corporation) had been added was used. Subsequently, the cells were cultured for 6 weeks and a calcium assay which will be described later was performed.
In the case of the 3D spheroid-cultured nerve cells, each spheroid was transferred to a plate for measurement, a calcium-sensitive fluorescent dye (Cal-520AM, (AAT Bioquest, Inc.)), Pluronic F-127 (AAT Bioquest, Inc.), and the drug were added to the culture medium, and the fluorescence was measured at intervals of 0.5 seconds for 20 minutes using a fluorescence plate reader to measure the calcium spikes.
By setting the proportion of the change in number of the calcium spikes in a case where dimethyl sulfoxide (DMSO) used as a solvent for the drug was added to 0%, in a case where the number of the calcium spikes increased due to the addition of the drug, the value is shown to be positive, and in a case where the number of the calcium spikes decreased due to the addition of the drug, the value is shown to be negative.
A calcium assay was performed in the presence of a drug, using spheroids with different numbers of cells, and the drug responsiveness of the nerve cells was examined. Human iPSC-derived nerve cells (Excitatory Neurons, Elixirgen Scientific, Inc.) and human-derived primary cultured astrocytes (ScienCell Research Laboratories, Inc.) were mixed so that the number of cells per well was 8,000 for the nerve cells and 8,000 for the astrocytes, 4,000 for the nerve cells and 4,000 for the astrocytes, or 2,000 for the nerve cells and 2,000 for the astrocytes, and seeded on a plate for producing a spheroid. As the culture medium, Neurobasal Plus (Thermo Fisher Scientific, Inc.) to which B-27 Plus Supplement (Thermo Fisher Scientific, Inc.), Glutamax (Thermo Fisher Scientific, Inc.), 200 μM ascorbic acid (FUJIFILM Wako Pure Chemical Corporation), and a 10% Neuron Culture medium (FUJIFILM Wako Pure Chemical Corporation) had been added was used. Subsequently, the cells were cultured for 5 weeks, and a calcium assay was performed in the same manner as in Experimental Example 1. Chlorpromazine was used as the drug.
The values in the graph indicate the mean value±the standard deviation. The horizontal axis of the graph indicates the concentration of chlorpromazine in the culture medium, and the vertical axis of the graph indicates a relative value of the number of the calcium spikes in a case where dimethyl sulfoxide (DMSO) used as a solvent for the drug was added, with the number of the calcium spikes set to 100%. […] 0% indicates a state in which the calcium spikes completely disappear.
A calcium assay was performed in the same manner as in Experimental Example 2, except that the drug was changed to GABA and the number of cells constituting the spheroid was changed to 16,000 or 4,000, and the drug responsiveness of the nerve cells was examined.

The subject of test [2] is 2D-cultured nerve cells (human iPSC-derived nerve cells and human-derived primary cultured astrocytes). As to the kind of experiment: Calcium assay in 2D-cultured nerve cells (number of calcium spikes). It counts as cell-based. The following applies: cultured 6 weeks, Experimental Example 1, FIG. 1. The method, then:
Human iPSC-derived nerve cells (Excitatory Neurons, Elixirgen Scientific, Inc.) and human-derived primary cultured astrocytes (ScienCell Research Laboratories, Inc.) were seeded in a 384-well plate so that the number of cells per well was 10,000 for the nerve cells and 2,500 for the astrocytes. As the culture medium, Neurobasal Plus (Thermo Fisher Scientific, Inc.) to which B-27 Plus Supplement (Thermo Fisher Scientific, Inc.), Glutamax (Thermo Fisher Scientific, Inc.), 200 µM ascorbic acid (FUJIFILM Wako Pure Chemical Corporation), and a 10% Neuron Culture medium (FUJIFILM Wako Pure Chemical Corporation) had been added was used. Subsequently, the cells were cultured for 6 weeks and a calcium assay which will be described later was performed.
A calcium assay was performed in the presence of a drug to examine the drug responsiveness of the 2D-cultured nerve cells and the 3D spheroid-cultured nerve cells. Chlorpromazine was used as the drug.
In the case of the 2D-cultured nerve cells, a calcium-sensitive fluorescent dye (Cal-520AM, AAT Bioquest, Inc.) and a drug were added to the culture medium, and the fluorescence was measured at intervals of 0.5 seconds for 20 minutes using a fluorescence plate reader to measure the calcium spikes.
FIG. 1 is a graph showing the measurement results. The values in the graph indicate the mean value±the standard deviation. […]

Where [3] appears, read: spheroid of 4,000 cells, compared with 16,000 cells.
Where [4] appears, read: spheroid of 4,000 cells, Experimental Examples 2-3, FIG. 2-3, chlorpromazine at 1 μM and 3 μM.
[5] abbreviates: spheroid of 8,000 cells, Experimental Examples 2-3, FIG. 2-3, chlorpromazine at 1 μM and 3 μM.
[6] abbreviates: spheroid of 16,000 cells, Experimental Examples 2-3, FIG. 2-3, chlorpromazine at 1 μM and 3 μM.

Consider `CN1CCc2cc3c(cc2[C@H]1[C@@H]1OC(=O)c2c1ccc1c2OCO1)OCO3` [bicuculine], for which the “relative value (log 2) of a change in number of the calcium spikes (DMSO = 0)” value is reported as “drug responsiveness was exhibited in a concentration-dependent manner” in test [1] (setting [3]) and “no drug response was observed” in test [1] (spheroid of 16,000 cells). Moreover, the “relative value of the number of the calcium spikes (DMSO set to 100%)” value in test [1] (setting [4]) is listed as “an increase in the number of the calcium spikes was observed in a concentration-dependent manner”; in test [1] (setting [5]), “a significant response was not observed”; in test [1] (spheroid of 8,000 cells, drug at 30 μM, Experimental Example 3, FIG. 3) it was “a tendency of an increase in the number of the calcium spikes was observed”; in test [1] (setting [6]), “an increase in the number of the calcium spikes was not observed at any concentration”.

Take `NC(=O)N1c2ccccc2C=Cc2ccccc21` [carbamazepine]: in test [1] (setting [3]), the “relative value (log 2) of a change in number of the calcium spikes (DMSO = 0)” value is “the action was exhibited at a lower concentration and a stronger action was exhibited at 4,000 cells in a concentration-dependent manner”.

Take `N#Cc1cc2c(cc1[N+](=O)[O-])=NC(=O)C(=O)N=2` [CNQX, 6-cyano-7-nitroquinoxaline-2,3-dione]: the “relative value (log 2) of a change in number of the calcium spikes (DMSO = 0)” value in test [1] (setting [3]) was “the action was exhibited at a lower concentration and a stronger action was exhibited at 4,000 cells in a concentration-dependent manner”.

For the compound `NCCCC(=O)O` [GABA, γ-aminobutyric acid], in test [1] (setting [3]), the “relative value (log 2) of a change in number of the calcium spikes (DMSO = 0)” value was “the action was exhibited at a lower concentration and a stronger action was exhibited at 4,000 cells in a concentration-dependent manner”.

Consider `CN(C)CCCN1c2ccccc2Sc2ccc(Cl)cc21` [chlorpromazine, Chlorpromazine], for which the “number of the calcium spikes (proportion of change vs DMSO)” value in test [2] (2D culture, 10,000 nerve cells and 2,500 astrocytes per well) is on record as “the number of the calcium spikes decreased in a drug concentration-dependent manner”. Moreover, the “concentration at which the calcium spikes disappeared” value in test [2] (2D culture) amounted to 3 µM. In test [1] (3D spheroid, 8,000 nerve cells + 8,000 astrocytes, cultured 6 weeks, Experimental Example 1, FIG. 1), the “change in number of the calcium spikes (vs DMSO)” value is reported as “no change in number of the calcium spikes was observed at any drug concentration”. Also, the “relative value (log 2) of a change in number of the calcium spikes (DMSO = 0)” value in test [1] (setting [3]) is “the action was exhibited at a lower concentration and a stronger action was exhibited at 4,000 cells in a concentration-dependent manner”. For the same compound, the “relative value of the number of the calcium spikes (DMSO set to 100%)” value in test [1] (setting [4]) is on record as “showed a concentration-dependent response”; in test [1] (setting [5]), “did not show a concentration-dependent response”; in test [1] (setting [6]), “did not show a concentration-dependent response”.

For the compound `NCCc1ccc(O)c(O)c1` [dopamine], the “relative value (log 2) of a change in number of the calcium spikes (DMSO = 0)” value in test [1] (setting [3]) was “the action was exhibited at a lower concentration and a stronger action was exhibited at 4,000 cells in a concentration-dependent manner”.
